Target: T1, human Ox2R (Homo sapiens, UniProt O43614)
T1 construct: The gene encoding hOx2R was subcloned into the expression plasmid pcDNA5/FRT/TO; expressed in transfected cells; host or cells: CHO Flp-In cells (pcDNA5/FRT/TO with pOG44 Flp recombinase vector, hygromycin B selection)
T1 sequence (O43614 1-444): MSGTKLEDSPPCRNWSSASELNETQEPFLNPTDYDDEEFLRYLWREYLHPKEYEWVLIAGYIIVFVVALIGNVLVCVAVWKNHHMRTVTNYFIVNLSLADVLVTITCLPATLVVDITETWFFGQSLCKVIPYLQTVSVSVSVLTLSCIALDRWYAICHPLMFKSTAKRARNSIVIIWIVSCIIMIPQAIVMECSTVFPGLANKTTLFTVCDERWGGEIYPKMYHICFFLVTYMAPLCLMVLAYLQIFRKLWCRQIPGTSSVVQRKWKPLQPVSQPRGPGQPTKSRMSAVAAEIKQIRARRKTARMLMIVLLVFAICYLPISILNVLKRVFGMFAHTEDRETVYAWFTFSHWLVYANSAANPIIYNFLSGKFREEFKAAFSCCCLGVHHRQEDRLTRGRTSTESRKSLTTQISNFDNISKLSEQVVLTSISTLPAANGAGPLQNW
Test: Measurement of OX2R agonist activity (cell-based calcium release assay)
Conditions: hOx2R-CHO Flp-In cells, n≥2 tests; for EC50: intracellular calcium, read-out: EC50; for Emax: normalized to assay buffer (0%) and 10 μM Danavorexton (100%), read-out: Emax (%)
In short: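 CHO Flp-In cells stably expressing human Ox2R, dye-loaded 1 h at 37 °C in HBSS/20 mM HEPES pH 7.4 with 2.5 mM probenecid and 10 mM CaCl2, then stimulated with compound.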

| Structure (SMILES) | EC50 [nM] | Emax [%] |
| --- | --- | --- |
| C[C@H]1Oc2c(F)cccc2-c2cc(ccc2F)C[C@@]2(CC[C@H](NS(C)(=O)=O)C2)c2nc1co2 [Example 85, N-[(1′S,9R,14R)-6,19-difluoro-9-methyl-spiro[8,12-dioxa-21-azatetracyclo[14.3.1.110,13.02,7]henicosa-1(19),2(7),3,5,10,13(21),16(20),17-octaene-14,3′-cyclopentane]-1′-yl]methanesulfonamide] | 2.3 | 100 |
| CS(=O)(=O)N[C@H]1CC[C@@]2(Cc3cccc(c3)-c3cccc(c3)OCc3ccnc2n3)C1 [Example 86, N-[(1′S,14R)-spiro[7-oxa-12,21-diazatetracyclo[14.3.1.12,6.19,13]docosa-1(20),2,4,6(22),9,11,13(21),16,18-nonaene-14,3′-cyclopentane]-1′-yl]methanesulfonamide] | 90 | 100 |
| CS(=O)(=O)N[C@H]1CC[C@@]2(Cc3ccc(F)c(c3)-c3ccc(F)c(F)c3OCc3ccnc2n3)C1 [Example 87, N-[(1′S,15R)-5,6,20-trifluorospiro[8-oxa-13,22-diazatetracyclo[15.3.1.110,14.02,7]docosa-1(21),2,4,6,10,12,14(22),17,19-nonaene-15,3′-cyclopentane]-1′-yl]methanesulfonamide] | 2 | 100 |
| CS(=O)(=O)N[C@H]1CC[C@@]2(Cc3ccc(F)c(c3)-c3ccccc3OCc3ccnc2n3)C1 [Example 90, N-[(1′S,15R)-20-fluorospiro[8-oxa-13,22-diazatetracyclo[15.3.1.110,14.02,7]docosa-1(20),2,4,6,10,12,14(22),17(21),18-nonaene-15,3′-cyclopentane]-1′-yl]methanesulfonamide] | 1.1 | 110 |
| CS(=O)(=O)N[C@H]1CC[C@@]2(Cc3ccc(F)c(c3)-c3cc(F)cc(F)c3OCc3ccnc2n3)C1 [Example 91, N-[(1′S,15R)-4,6,20-trifluorospiro[8-oxa-13,22-diazatetracyclo[15.3.1.110,14.02,7]docosa-1(20),2,4,6,10,12,14(22),17(21),18-nonaene-15,3′-cyclopentane]-1′-yl]methanesulfonamide] | 0.32 | 100 |
| CS(=O)(=O)N[C@H]1CC[C@@]2(Cc3ccc(F)c(c3)-c3ccc(F)cc3OCc3ccnc2n3)C1 [Example 92, N-[(1′S,15R)-5,20-difluorospiro[8-oxa-13,22-diazatetracyclo[15.3.1.110,14.02,7]docosa-1(20),2,4,6,10,12,14(22),17(21),18-nonaene-15,3′-cyclopentane]-1′-yl]methanesulfonamide] | 16 | 110 |

Further lines, results first:

| EC50 [nM] | Emax [%] | Structure (SMILES) |
| --- | --- | --- |
| 8 | 100 | CS(=O)(=O)N[C@H]1CC[C@@]2(Cc3ccc(F)c(c3)-c3cccc(F)c3OCc3nccc2n3)C1 [Example 95, N-[(1′S,15R)-6,20-difluorospiro[8-oxa-11,22-diazatetracyclo[15.3.1.110,14.02,7]docosa-1(20),2,4,6,10,12,14(22),17(21),18-nonaene-15,3′-cyclopentane]-1′-yl]methanesulfonamide] |
| 0.23 | 98 | CS(=O)(=O)N[C@H]1CC[C@]2(CC1)Cc1cc(c(F)cc1F)-c1cccc(F)c1OCc1coc2n1 [Example 96, trans-N-(6,17,19-trifluorospiro[8,12-dioxa-21-azatetracyclo[14.3.1.110,13.02,7]henicosa-1(19),2,4,6,10,13(21),16(20),17-octaene-14,4′-cyclohexane]-1′-yl)methanesulfonamide] |
| 0.39 | 96 | CS(=O)(=O)N[C@H]1CC[C@]2(CC1)Cc1ccc(F)c(c1)-c1cccc(F)c1OCc1coc2n1 [Example 97, trans-N-(6,19-difluorospiro[8,12-dioxa-21-azatetracyclo[14.3.1.110,13.02,7]henicosa-1(19),2,4,6,10,13(21),16(20),17-octaene-14,4′-cyclohexane]-1′-yl)methanesulfonamide] |

— patent publication US12590106B2, “Spiromacrocyclic orexin 2 receptor agonists” (H. Lundbeck A/S, priority 2023, dated 2026)
